Patent publication US20260355199A1, “COMPOSITIONS AND METHODS FOR TREATING OR PREVENTING NONALCOHOLIC STEATOHEPATITIS (NASH), ANOREXIA, DEPRESSION, ENDOMETRIOSIS, AND OTHER DISEASES OR DISORDERS” (priority 2022, published 2026)
“Also recorded” adds a separate entry of the source.

Key:
AGRP in the ARC = assay: AGRP expression and feeding of chow-fed mice given Bobcat339 in drinking water; type: in vivo, mouse
Description: It has previously been shown that TET3 expression is aberrantly elevated in the livers of humans and mice with type 2 diabetes and that liver-specific, siRNA-mediated TET3 knockdown improves glucose homeostasis both in dietary and genetic mouse models of diabetes (Li D. et al., 2020, Nature Communications, 11:342). Bobcat339 (4-Amino-1-[1,1′-biphenyl]-3-yl-5-chloro-2(1H)-pyrimidinone) is a synthetic cytosine derivative capable of binding competitively with 5mC to the active sites of [COMPOUND LEFT OUT] and inhibits their enzymatic activity in cultured neuronal cells (Chua G. N. L. et al., 2019, ACS Medicinal Chemistry Letters, 10:180-185). Although not bound by any particular theory, it was hypothesized that Bobcat339 has an anti-diabetic effect owing to its ability to inhibit [COMPOUND LEFT OUT]. Thus, the present studies employed high fat diet (HFD)-induced diabetic mice that were treated with Bobcat339 in drinking water for two weeks. […] Thus, nondiabetic mice fed on regular chow were treated with Bobcat339 in drinking water. Four days later, ARCs were isolated from ad libitum-fed mice and analyzed. […]
Immunofluorescence Postfixed sections were cut into 40 μm-thick sections. […] The sections were coverslipped and visualized using a Keyence BZ-X700 fluorescence microscope. The fluorescence signals from GFP and mCherry in AgRP neurons were detected without immunostaining. […]

TET3 = TET3 protein in RAW 264.7 cells; type: cell-based, mouse; conditions: RAW 264.7, 10 μM, 24 h
Procedure: For siRNA transfection in a 24-well plate scale of Raw 264.7 cells, 10 pmol of NT siRNA (AM4636, Ambion) or Tet3 siRNA (4390815/s101483, Ambion) was mixed with 100 μL of OPTI-MEM (Gibco, 31985-070) by gentle pipetting. In parallel, 3 μL of Lipofectamine RNAiMAX (Invitrogen, 13778-150) was mixed with 100 μL of OPTI-MEM by gentle pipetting. Following 5 min of incubation at RT, the two were combined and the resulting 200 μL of transfection solution was added to each well of cells. After 24 h of incubation at […] in a 5% humidified CO2 tissue culture incubator, 300 μL of growth media was added and incubation was continued until cell harvesting.
Bobcat339 Treatment of Cultured Cells Bobcat339 powder (Sigma-Aldrich, SML2611) was freshly dissolved in DMSO at a concentration of 5 mM and filtered through a 0.22 micron. Cells grown at a density of 80-90% were incubated in growth media with vehicle (DMSO) or Bobcat339 at a final concentration of 10 μM for 24 h, followed by RNA and protein extraction.
For TET3 expression restoration experiments, cells seeded in 24-well plates were infected with Ad-GFP or Ad-TET3 at 4000 gc/cell. Following 16 h of infection, vehicle or Bobcat339 were added at a final concentration of 10 μM. Protein and RNA were isolated 48 hours later and analyzed. […]

Nc1nc(=O)n(-c2cccc(-c3ccccc3)c2)cc1Cl [Bobcat339, 4-Amino-1-[1,1′-biphenyl]-3-yl-5-chloro-2(1H)-pyrimidinone] was tested. Which “AGRP expression in the ARC” value (AGRP in the ARC; Bobcat339 100 mg/kg per day in drinking water, 4 days, 100 mg/kg/day) did it give?
Its value is “increased AGRP expression in the ARC; also recorded: increased AGRP peptide; also recorded: increased AGRP production”.

What about the feeding (AGRP in the ARC; mice exposed to Bobcat339) of the same compound?
Its feeding is “induced hyperphagia”.

And the TET3 protein level (TET3)?
Its TET3 protein level is “decreased the levels of TET3 protein; also recorded: decreased the level of TET3; also recorded: a decrease in TET3 at the protein level”.
